The values that follow come from US20260207578A1, “COMPOUND BASED ON SULFUR/OXYGEN SUBSTITUTED GLUTARIMIDE-BASED ISOINDOLINONE SKELETON AND USE THEREOF” (Gluetacs Therapeutics (Shanghai) Co., LTD., priority 2022, published 2026).

Experiment [1] deals with T1, human Cereblon WT GST-tagged protein (Homo sapiens, UniProt Q96SW2).
T1 construct: purchased CISBIO 64BDCRBNPEH
Kind of experiment: CRBN-binding affinity, HTRF (CEREBLON BINDING kit). Particulars: displacement of Thalidomide-Re reagent, 3 hours at room temperature. How it is done:
The CEREBLON BINDING kits (specification: 10,000 tests; product number: Catalog #64BDCRBNPEH; CISBIO company) was used to determine the CRBN binding ability of the compounds to be tested through a HTRF method (homogeneous time-resolved fluorescence). The specific methods are as follows: • 1. […] Then, 2.5 μL of human Cereblon WT GST-tagged protein solution was added to each well. Finally, 5 μL of the thoroughly mixed Thalidomide-Re reagent and GST Eu antibody working solution were added to each of the aforementioned wells. […] The blank control wells were sequentially added with 2.5 μL of diluent #9 (1×) solution, 2.5 μL of PROTAC binding buffer, and 5 μL of thoroughly mixed Thalidomide-Re reagent and GST Eu antibody working solution. • 4.
OD 620 nmcompound is the absorbance value of each well of the compounds to be tested of the present disclosure at an emission wavelength of 620 nm. […] OD 620 nmcontrol is the absorbance value of the blank control well at an emission wavelength of 620 nm. […] OD 620 nmStd0 is the absorbance value of the solvent control well at an emission wavelength of 620 nm.
A general note: Time-resolved FRET reads energy transfer from a long-lived donor to a nearby acceptor.

The next experiment addresses T2, Wee1 (Homo sapiens, UniProt P30291+Q96SW2).
T2 construct: endogenous in cells; host or cells: human PBMCs (Milecell Biotechnologies)
Kind of experiment: Western-blot assay, substrate protein in hPBMCs. Type of experiment: cell-based. Particulars: hPBMC cells, 24 hours, tested at 50 nM and 500 nM, table does not say which. Here is the method: (§1) The effect of the compounds of the present disclosure on the expression of target proteins in cells was detected using conventional Western blot analysis.
(§2) Human peripheral blood mononuclear cells (hPBMCs) at a density of 1×10^6 cells/mL were thawed according to the PBMC Recovery Protocol (Milecell Biotechnologies Inc, Shanghai).
(§3) After 24 hours of compounds treatment, cells were harvested and lysed in RIPA protein lysate containing phosphatase inhibitors on ice for 30-60 min, followed by centrifugation. The supernatant was aspirated as the extracted total cell protein. The protein concentration of the supernatant was determined using the conventional BCA (Bicinchoninic Acid) assay. The supernatant was then mixed with 4× SDS sample loading buffer, denatured at 95° C. for 5 minutes, and then subjected to SDS-PAGE electrophoresis on a polyacrylamide gel. Proteins were then transferred to a nitrocellulose (NC) membrane, blocked at room temperature for 1-2 h, and processed for antibody incubation and detection according to the manufacturer's instructions (Cell Signaling Technology).
(§4) Half-Maximal Degradation Concentration value (the drug concentration required for degrading proteins by 50%, abbreviated as DC50) reads method: comparing the grayscale values of Western blot bands from drug-treated samples with those from blank DMSO-treated controls, and identifying the drug concentration range at which the grayscale value is half that of the DMSO-treated control bands.
(§5) DC50 values can be calculated using ImageJ software to measure grayscale values of Western blot bands from drug-treated samples. The concentration-response curve is fitted to estimate the drug concentration corresponding to half the grayscale value.
(§6) Target protein remaining (%) refers to the percentage of target protein remaining in hPBMC cells after treatment with protein degrader compounds.
(§7) Calculation method for protein remaining (%): Use ImageJ software to measure grayscale values of Western blot bands from drug (protein degrader)-treated samples. The grayscale value of drug-treated bands is divided by that of internal control protein bands, and the resulting quotient is normalized to obtain the relative percentage of remaining target protein after protein degrader treatment.
(§8) Target protein degradation rate (%)=100%−target protein remaining (%).

The next experiment has as its target T3, GSPT1 (Homo sapiens, UniProt P15170+Q96SW2).
T3 construct: endogenous in cells; host or cells: human PBMCs (Milecell Biotechnologies)
Briefly: Western-blot assay, substrate protein in hPBMCs. The following applies: hPBMC cells, 24 hours, tested at 50 nM and 500 nM, table does not say which. The experiment is classed as cell-based. How it is done: as §1, §2, §3, §4, §5, §6, §7, §8

The target in a further experiment is T4, CK1α (Homo sapiens, UniProt P48729+Q96SW2).
T4 construct: endogenous in cells; host or cells: human PBMCs (Milecell Biotechnologies)
Kind of experiment: Western-blot assay, substrate protein in hPBMCs. The following applies: hPBMC cells, 24 hours, tested at 50 nM and 500 nM, table does not say which. Type of experiment: cell-based. Here is the method: as §1, §2, §3, §4, §5, §6, §7, §8

T3 sequence (P15170 whole entry): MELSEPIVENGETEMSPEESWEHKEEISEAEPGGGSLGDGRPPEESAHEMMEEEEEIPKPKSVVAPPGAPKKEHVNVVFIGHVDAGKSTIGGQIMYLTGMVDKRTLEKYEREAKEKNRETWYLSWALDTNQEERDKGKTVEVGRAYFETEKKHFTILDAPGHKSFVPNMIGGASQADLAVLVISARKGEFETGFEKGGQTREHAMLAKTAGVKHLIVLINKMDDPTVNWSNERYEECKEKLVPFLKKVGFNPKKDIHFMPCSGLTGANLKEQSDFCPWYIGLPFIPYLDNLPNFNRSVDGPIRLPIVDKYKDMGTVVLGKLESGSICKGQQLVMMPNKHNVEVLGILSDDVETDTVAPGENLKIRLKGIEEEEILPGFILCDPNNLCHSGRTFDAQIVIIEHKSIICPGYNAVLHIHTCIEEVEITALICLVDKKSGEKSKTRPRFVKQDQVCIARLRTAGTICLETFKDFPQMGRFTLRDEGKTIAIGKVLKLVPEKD
T3 sequence (Q96SW2 whole entry): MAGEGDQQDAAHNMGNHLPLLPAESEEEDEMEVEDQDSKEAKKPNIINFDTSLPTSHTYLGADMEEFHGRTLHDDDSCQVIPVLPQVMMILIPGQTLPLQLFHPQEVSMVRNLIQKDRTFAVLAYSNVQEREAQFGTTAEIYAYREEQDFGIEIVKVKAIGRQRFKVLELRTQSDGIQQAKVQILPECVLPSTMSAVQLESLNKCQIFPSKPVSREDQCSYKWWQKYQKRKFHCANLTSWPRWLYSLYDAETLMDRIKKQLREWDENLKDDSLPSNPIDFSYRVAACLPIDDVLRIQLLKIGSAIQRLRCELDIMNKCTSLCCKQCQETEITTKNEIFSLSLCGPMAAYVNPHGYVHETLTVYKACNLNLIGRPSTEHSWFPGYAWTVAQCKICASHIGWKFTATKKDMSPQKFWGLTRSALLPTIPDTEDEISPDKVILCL
T3 sequence (Q16531 whole entry partner): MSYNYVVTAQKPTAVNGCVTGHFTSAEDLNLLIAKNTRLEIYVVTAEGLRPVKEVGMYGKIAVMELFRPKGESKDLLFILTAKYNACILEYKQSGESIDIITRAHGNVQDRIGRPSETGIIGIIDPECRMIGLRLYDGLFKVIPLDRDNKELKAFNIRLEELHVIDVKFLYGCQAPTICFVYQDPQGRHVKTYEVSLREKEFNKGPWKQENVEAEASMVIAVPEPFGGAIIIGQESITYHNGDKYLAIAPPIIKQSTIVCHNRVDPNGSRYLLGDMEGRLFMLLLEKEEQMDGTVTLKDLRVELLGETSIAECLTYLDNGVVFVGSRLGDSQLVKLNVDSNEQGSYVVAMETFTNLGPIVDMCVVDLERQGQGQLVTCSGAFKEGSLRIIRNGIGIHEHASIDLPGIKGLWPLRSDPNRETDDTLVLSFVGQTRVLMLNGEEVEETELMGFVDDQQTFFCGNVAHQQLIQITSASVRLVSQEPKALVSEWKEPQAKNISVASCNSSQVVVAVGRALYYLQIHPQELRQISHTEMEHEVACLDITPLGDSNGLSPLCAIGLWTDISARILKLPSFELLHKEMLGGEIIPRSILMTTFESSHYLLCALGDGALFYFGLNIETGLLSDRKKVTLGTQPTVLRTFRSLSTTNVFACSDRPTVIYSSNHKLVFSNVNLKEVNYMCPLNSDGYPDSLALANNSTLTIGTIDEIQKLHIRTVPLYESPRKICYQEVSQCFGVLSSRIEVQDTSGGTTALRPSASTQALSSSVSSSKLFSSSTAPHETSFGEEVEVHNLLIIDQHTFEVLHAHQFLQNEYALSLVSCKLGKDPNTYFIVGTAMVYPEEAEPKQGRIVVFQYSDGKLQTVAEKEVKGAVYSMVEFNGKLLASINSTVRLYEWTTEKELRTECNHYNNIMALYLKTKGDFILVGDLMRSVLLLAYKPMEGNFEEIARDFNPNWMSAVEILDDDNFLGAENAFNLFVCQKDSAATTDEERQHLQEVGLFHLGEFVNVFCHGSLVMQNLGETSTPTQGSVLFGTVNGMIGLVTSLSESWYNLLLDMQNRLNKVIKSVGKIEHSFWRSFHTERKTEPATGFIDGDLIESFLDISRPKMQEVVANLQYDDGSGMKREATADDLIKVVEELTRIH
T2 sequence (P30291 whole entry): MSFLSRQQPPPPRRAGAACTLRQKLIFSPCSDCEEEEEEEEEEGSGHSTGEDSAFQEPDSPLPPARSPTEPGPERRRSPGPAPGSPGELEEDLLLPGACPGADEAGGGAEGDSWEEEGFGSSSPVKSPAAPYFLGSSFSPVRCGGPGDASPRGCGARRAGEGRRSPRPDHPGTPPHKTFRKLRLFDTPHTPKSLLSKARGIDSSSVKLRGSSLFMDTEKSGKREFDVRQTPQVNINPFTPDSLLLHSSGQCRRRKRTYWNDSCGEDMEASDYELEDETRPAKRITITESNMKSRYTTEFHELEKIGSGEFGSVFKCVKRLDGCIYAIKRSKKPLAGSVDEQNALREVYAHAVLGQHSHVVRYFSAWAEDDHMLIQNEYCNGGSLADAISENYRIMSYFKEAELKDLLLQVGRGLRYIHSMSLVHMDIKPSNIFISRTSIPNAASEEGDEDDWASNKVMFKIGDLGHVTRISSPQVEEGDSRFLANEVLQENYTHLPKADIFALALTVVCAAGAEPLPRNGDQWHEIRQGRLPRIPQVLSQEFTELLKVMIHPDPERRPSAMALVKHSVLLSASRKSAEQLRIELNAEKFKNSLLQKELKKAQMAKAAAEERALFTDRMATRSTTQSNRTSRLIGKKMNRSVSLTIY
T2 sequence (Q96SW2 whole entry): as the sequence (Q96SW2 whole entry) above
T2 sequence (Q16531 whole entry partner): as the sequence (Q16531 whole entry partner) above
T1 sequence (Q96SW2 whole entry): as the sequence (Q96SW2 whole entry) above
T4 sequence (P48729 whole entry): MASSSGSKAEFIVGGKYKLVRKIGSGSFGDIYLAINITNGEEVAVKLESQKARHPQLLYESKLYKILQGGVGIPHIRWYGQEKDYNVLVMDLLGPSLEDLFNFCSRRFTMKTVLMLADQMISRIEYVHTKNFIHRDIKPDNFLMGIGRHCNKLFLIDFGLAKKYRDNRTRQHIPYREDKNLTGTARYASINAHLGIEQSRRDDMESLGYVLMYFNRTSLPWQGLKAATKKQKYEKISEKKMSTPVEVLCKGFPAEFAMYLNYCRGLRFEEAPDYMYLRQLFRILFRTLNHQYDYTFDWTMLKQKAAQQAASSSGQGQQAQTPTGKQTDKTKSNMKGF
T4 sequence (Q96SW2 whole entry): as the sequence (Q96SW2 whole entry) above
T4 sequence (Q16531 whole entry partner): as the sequence (Q16531 whole entry partner) above

One may read the IC50 as the midpoint of a concentration-inhibition curve. Lower therefore signals greater potency. As for `O=C1CCC(N2Cc3cc(SC4CN(C(c5ccccc5)c5ccccc5)C4)ccc3C2=O)C(=O)N1` (stereo not shown) [GT-06138, 3-(5-((1-benzhydrylazetidin-3-yl)thio)-1-oxoisoindolin-2-yl)piperidine-2,6-dione], the IC50 in experiment [1] was in the range of 500 to 1000 nM. For the same compound, the “substrate protein remaining %” value on Wee1 and on GSPT1 was “A (0%≤ substrate protein remaining % ≤80%)” in each case.
Consider `O=C1CCC(N2Cc3cc(OC4CN(Cc5cccc(-c6ccc(Cl)cc6)c5)C4)ccc3C2=O)C(=O)N1` (stereo not shown) [GT-06227, 3-(5-((1-((4′-chloro-[1,1′-biphenyl]-3-yl)methyl)azetidin-3-yl)oxy)-1-oxoisoindolin-2-yl)piperidine-2,6-dione], for which the “substrate protein remaining %” value at Wee1, at GSPT1 and on CK1α was “A (0%≤ substrate protein remaining % ≤80%)” each time.
In the case of `O=C1CCC(N2Cc3cc(OC4CCN(Cc5cccc(-c6ccc(Cl)cc6)c5)CC4)ccc3C2=O)C(=O)N1` (stereo not shown) [GT-06228, 3-(5-((1-((4′-chloro-[1,1′-biphenyl]-3-yl)methyl)piperidin-4-yl)oxy)-1-oxoisoindolin-2-yl)piperidine-2,6-dione], the “substrate protein remaining %” value at Wee1, on GSPT1 and on CK1α was “A (0%≤ substrate protein remaining % ≤80%)” each time.
The compound `O=C1CCC(N2Cc3cc(OC4CN(Cc5ccc(-c6ccc(Cl)cc6)cc5)C4)ccc3C2=O)C(=O)N1` (stereo not shown) [GT-06230, 3-(5-((1-((4′-chloro-[1,1′-biphenyl]-4-yl)methyl)azetidin-3-yl)oxy)-1-oxoisoindolin-2-yl)piperidine-2,6-dione] displayed an IC50 in experiment [1] of 500 to 1000 nM. The “substrate protein remaining %” value on Wee1, at GSPT1 and at CK1α was “A (0%≤ substrate protein remaining % ≤80%)” in each case.
`O=C1CCC(N2Cc3cc(OC4CN(C(c5ccc(F)cc5)c5ccc(F)cc5)C4)ccc3C2=O)C(=O)N1` (stereo not shown) [GT-06519, 3-(5-((1-(bis(4-fluorophenyl)methyl)azetidin-3-yl)oxy)-1-oxoisoindolin-2-yl)piperidine-2,6-dione] gave an IC50 in experiment [1] of 500 to 1000 nM. Also, on CK1α, the “substrate protein remaining %” value is “A (0%≤ substrate protein remaining % ≤80%)”.
Consider `O=C1CCC(N2Cc3cc(OC4CN(CC5=C(c6ccc(Cl)cc6)CCC(F)(F)C5)C4)ccc3C2=O)C(=O)N1` (stereo not shown) [GT-06563, 3-(5-((1-((4′-chloro-4,4-difluoro-3,4,5,6-tetrahydro-[1,1′-biphenyl]-2-yl)methyl)azetidin-3-yl)oxy)-1-oxoisoindolin-2-yl)piperidine-2,6-dione], for which the IC50 in experiment [1] fell in the range of 500 to 1000 nM. Besides, the “substrate protein remaining %” value at Wee1 is “A (0%≤ substrate protein remaining % ≤80%)”.
In turn, `O=C1CCC(N2Cc3cc(OC4CC5CN(Cc6ccccc6-c6ccc(Cl)cc6)CC5C4)ccc3C2=O)C(=O)N1` (stereo not shown) [GT-06953, 3-(5-((2-((4′-chloro-[1,1′-biphenyl]-2-yl)methyl)octahydrocyclopenta [c]pyrrol-5-yl)oxy)-1-oxoisoindolin-2-yl)piperidine-2,6-dione] displayed an IC50 in experiment [1] of less than 500 nM. For the same compound, the “substrate protein remaining %” value at Wee1 and at CK1α was “A (0%≤ substrate protein remaining % ≤80%)” in each case.
Compound `O=C1CCC(N2Cc3cc(SC4CCCNCC4)ccc3C2=O)C(=O)N1` (stereo not shown) [GT-06995, 3-(5-(azepan-4-ylthio)-1-oxoisoindolin-2-yl)piperidine-2,6-dione] returned an IC50 in experiment [1] of 1000 to 1900 nM. In addition, the “substrate protein remaining %” value at CK1α was “A (0%≤ substrate protein remaining % ≤80%)”.
Take `CC1(C)CCC(C(=O)N2C[C@H]3CC(Oc4ccc5c(c4)CN(C4CCC(=O)NC4=O)C5=O)C[C@H]3C2)=C(c2ccc(Cl)cc2)C1` (stereo partly drawn) [GT-07019, 3-(5-(((3aR,6aS)-2-(4′-chloro-5,5-dimethyl-3,4,5,6-tetrahydro-[1,1′-biphenyl]-2-carbonyl)octahydro-cyclopenta[c]pyrrol-5-yl)oxy)-1-oxoisoindolin-2-yl)piperidine-2,6-dione]: in experiment [1], the IC50 is less than 500 nM. For the same compound, the “substrate protein remaining %” value at Wee1 is recorded as “A (0%≤ substrate protein remaining % ≤80%)”.
Compound `CC1(C)CCC(C(=O)N2CCC3(CC2)CC(Oc2ccc4c(c2)CN(C2CCC(=O)NC2=O)C4=O)C3)=C(c2ccc(Cl)cc2)C1` (stereo not shown) [GT-07020, 3-(5-((7-(4′-chloro-5,5-dimethyl-3,4,5,6-tetrahydro-[1,1′-biphenyl]-2-carbonyl)-7-azaspiro[3.5]nonan-2-yl)oxy)-1-oxoisoindolin-2-yl)piperidine-2,6-dione] returned an IC50 in experiment [1] of 500 to 1000 nM. Besides, the “substrate protein remaining %” value at Wee1 and on GSPT1 was “A (0%≤ substrate protein remaining % ≤80%)” throughout.
For the compound `O=C1CCC(N2Cc3cc(SC4C[C@@H]5CN(C(=O)c6ccccc6-c6ccc(Cl)cc6)C[C@H]5C4)ccc3C2=O)C(=O)N1` (stereo partly drawn) [GT-07023, 3-(5-(((3aS,6aS)-2-(4′-chloro-[1,1′-biphenyl]-2-carbonyl)octahydro-cyclopenta[c]pyrrol-5-yl)thio)-1-oxoisoindolin-2-yl)piperidine-2,6-dione], the IC50 in experiment [1] was less than 500 nM. The “substrate protein remaining %” value at Wee1 is on record as “A (0%≤ substrate protein remaining % ≤80%)”.
As for `CC1(C)CCC(CN2CCC(Oc3ccc4c(c3)CN(C3CCC(=O)NC3=O)C4=O)CC2)=C(c2ccc(Cl)cc2)C1` (stereo not shown) [GT-07061, 3-(5-((1-((4′-chloro-5,5-dimethyl-3,4,5,6-tetrahydro-[1,1′-biphenyl]-2-yl)methyl)piperidin-4-yl)oxy)-1-oxoisoindolin-2-yl)piperidine-2,6-dione], the “substrate protein remaining %” value on CK1α is “A (0%≤ substrate protein remaining % ≤80%)”.
Still for that read-out and setting: the result for `CC1(C)CCC(CN2CCC(Oc3ccc4c(c3)CN(C3CCC(=O)NC3=O)C4=O)CC2)=C(c2ccc(F)cc2)C1` (stereo not shown) [GT-07062, 3-(5-((1-((4′-fluoro-5,5-dimethyl-3,4,5,6-tetrahydro-[1,1′-biphenyl]-2-yl)methyl)piperidin-4-yl)oxy)-1-oxoisoindolin-2-yl)piperidine-2,6-dione] reads “A (0%≤ substrate protein remaining % ≤80%)”; that for `CC1(C)CCC(CN2CC(Oc3cccc4c3C(=O)N(C3CCC(=O)NC3=O)C4)C2)=C(c2ccc(Cl)cc2)C1` (stereo not shown) [GT-07063], “A (0%≤ substrate protein remaining % ≤80%)”; that for `COC1(C)CCC(c2ccc(Cl)cc2)=C(CN2CC(Sc3ccc4c(c3)CN(C3CCC(=O)NC3=O)C4=O)C2)C1` (stereo not shown) [GT-07064, 3-(5-((1-((4′-chloro-4-methoxy-4-methyl-3,4,5,6-tetrahydro-[1,1′-biphenyl]-2-yl)methyl)azetidin-3-yl)thio)-1-oxoisoindolin-2-yl)piperidine-2,6-dione], “A (0%≤ substrate protein remaining % ≤80%)”.
Still for that read-out and setting: the result for `COC1(C)CCC(c2ccc(Cl)cc2)=C(CN2CC(Oc3ccc4c(c3)CN(C3CCC(=O)NC3=O)C4=O)C2)C1` (stereo not shown) [GT-07065, 3-(5-((1-((4′-chloro-4-methoxy-4-methyl-3,4,5,6-tetrahydro-[1,1′-biphenyl]-2-yl)methyl)azetidin-3-yl)oxy)-1-oxoisoindolin-2-yl)piperidine-2,6-dione] reads “A (0%≤ substrate protein remaining % ≤80%)”.
